Measurements: publication PMC11087398, “Evaluation of 1,10-phenanthroline-based hydroxamate derivative as dual histone deacetylases/ribonucleotide reductase inhibitor with antitumor activities” (DARU Journal of Pharmaceutical Sciences, 2024)
Like-named read-outs stand apart in the source and are kept apart here.

Key:
MCF7 = assay: MTT cell viability assay; assay type: cell-based, human; conditions: mean ± SD, read-out: Antiproliferative activity IC50, MCF7
Description: (§1) Human cancer cells (SiHa, HepG2, MCF7, Cal27) were obtained from ATCC, while foreskin fibroblast cells were generated at the Manipal School of Life Sciences. Cells were cultured in DMEM with 10% FBS, maintained in an Eppendorf CellXpert® C170 incubator at 37 °C with 5% CO2, and medium was renewed every 48–72 h.
(§2) Cancer cells (1 × 10^5 cells/mL) and fibroblast cells (5 × 10^4 cells/mL) were seeded in 96-well plates. Test compounds, dissolved in DMSO and diluted in DMEM with 10% FBS, were treated for 48 h. MTT (5 mg/mL) was added, and after 4 h, absorbance was measured at 570 and 630 nm using a VARIOSKAN™ 3001 multimode multiplate reader.

SiHa = assay: MTT cell viability assay; assay type: cell-based, human; conditions: 48 h, mean ± SD, read-out: Antiproliferative activity IC50, SiHa
Description: as §1, §2

Cal27 = assay: MTT cell viability assay; assay type: cell-based, human; conditions: mean ± SD, read-out: Antiproliferative activity IC50, Cal27
Description: as §1, §2

HepG2 = assay: MTT cell viability assay; assay type: cell-based, human; conditions: mean ± SD, read-out: Antiproliferative activity IC50, HepG2
Description: as §1, §2

[1] = system: foreskin fibroblast cells; assay: MTT cell viability assay; assay type: cell-based; conditions: 48 h, normal human fibroblast cells, mean ± SD, read-out: Antiproliferative activity IC50, Fibroblast
Description: as §1, §2

SiHa cells [2] = assay: Anchorage-dependent colony formation assay; assay type: cell-based, human; conditions: IC50 concentration of each compound
Description: SiHa cells (500 cells/well) were seeded in 6 cm plates. After 24 h, cells were treated with the IC50 concentration of test compounds and incubated for 21 days with media changes every three days. On day 21, colonies were stained with 0.4% crystal violet for 10 min, washed twice with PBS, and then counted.

SiHa cells [3] = assay: Suppression of cytotoxicity by iron supplementation (FAC co-administration, MTT); assay type: cell-based, human; conditions: PA at IC50 with FAC 25, 50, 100 µM, MTT after 48 h
Description: To confirm the intracellular Fe^3+ chelation ability of PA, three different concentrations (25, 50, 100 µM) of ferric ammonium citrate (FAC) with PA (IC50) were co-administered in SiHa cells, and the cell viability was assessed using MTT after 48 h.

SiHa cells [4] = assay: Cell cycle analysis (propidium iodide flow cytometry); assay type: cell-based, human; conditions: IC50 concentration, 48 h
Excerpt: After trypsinization, cells were fixed in 70% ethanol, treated with RNase-A, stained with propidium iodide, and analyzed using the Partec CyFlow Space with FloMax software (Germany).

[5] = system: RR (3H-thymidine incorporation into DNA of SiHa cells); assay: Inhibition of DNA synthesis (3H-thymidine incorporation) as RR activity; assay type: cell-based; conditions: Homo sapiens, 48 h treatment
Description: SiHa cells (5 × 10^6) were treated with varying test compound concentrations for 48 h. Following incubation, cells were pulsed with 5 nM ^3H-thymidine for 30 min at 37 °C. After collection, washing, and total DNA extraction, radioactivity was quantified as counts per min (CPM) using a Tri-carb 2900TR liquid scintillation (Perkin Elmer, USA).

[6] = system: Acetyl-Histone H3 in SiHa cells; assay: Western blot of acetylated histone H3; assay type: cell-based, human; conditions: PA 10 and 20 µM, 48 h
Description: SiHa cells (2 × 10^5 cells/well) were cultured in 6-well plates, treated with varied concentrations of test compounds for 48 h, and lysed in RIPA buffer. After centrifugation, protein content was quantified using Bradford assay. Protein extracts were subjected to SDS-PAGE and were transferred to the nitrocellulose membrane. Following blocking, membranes were probed with CST antibodies (Acetyl-Histone H3, B-Actin) at 1:3000 dilution and secondary anti-rabbit antibodies (1:5000 dilution). iBright™ CL1500 Imaging System captured the images.

[7] = system: intracellular dNTP levels in SiHa cells; assay: dNTP pool analysis (HPLC); assay type: cell-based, human; conditions: IC50 concentration
Description: Harvested duplicate samples (1 million cells each) were washed with ice-cold PBS, and an extraction solution (6.5: 3.5 of acetonitrile and water mixture with 100 mM formic acid) was added. After incubation and centrifugation, the solution was lyophilized, reconstituted in 100 µL HPLC buffer A, and analyzed on a Waters Symmetry C18 column using HPLC. A stepwise gradient of Buffer A and B was employed, with detection at 260 and 280 nm, as mentioned by Crona et al., in 2016 [34]. Quantification was based on peak area measurements in the chromatogram, providing relative quantification of the analyzed components.

[8] = system: HDAC (SiHa cell nuclear extracts); assay: In vitro fluorescent HDAC assay; assay type: biochemical, human; conditions: substrate Boc-Lys(Ac)-AMC, read-out: HDAC inhibitory activity IC50
Description: In a black 96-well plate, HDAC assay buffer, varied concentrations of test compounds, and SiHa cell nucleus extract were combined and incubated for 30 min. The enzymatic reaction commenced with the addition of the fluorescent substrate, Boc-Lys(Ac)-AMC, and lasted for 2 h at 37 °C. Reaction termination involved adding a developer, followed by an additional incubation at room temperature for 10–15 min. Fluorescence intensity was assessed using a VARIOSKAN™ 3001 multimode multiplate reader at an excitation wavelength of 354 nm and emission wavelength of 450 nm.

SiHa cells [9] = assay: Apoptosis assay (Annexin V/propidium iodide flow cytometry); assay type: cell-based, human; conditions: 48 h
Description: SiHa cells were cultured at a density of 1 × 10^6 cells/mL in 10 cm plates. Upon reaching 80% confluency, cells were subjected to 48 h treatment with test compounds (IC50 and IC70). Following two PBS washes, trypsinization, and suspension in Annexin V binding buffer, cells were incubated, stained with propidium iodide, and analyzed for apoptosis using Apoptosis Detection Kit I and Partec CyFlow Space with FloMax software (Germany).

[10] = Partition coefficient 1-octanol/water; assay type: physicochemical; conditions: 1-octanol/water (MOPS buffer), pH 7.4; read-out: log (Kpart7.4), partition coefficient
Description: The partition coefficient (Kpart) of PA was determined in a 1-octanol/water system. 1-octanol was added to MOPS buffer containing PA (IC50), and OD at 276 nm was measured before and after each addition. Kpart values were calculated..

SiHa cells [11] = assay: In vitro cell migration (scratch) assay; assay type: cell-based, human; conditions: IC50 concentration, 48 h post-wounding, control group 19.64%
Description: SiHa cells were cultured in 6-well plates using DMEM with 10% FBS until they formed a monolayer. A scratch was done on the cell monolayer by using a sterile 200 μL pipette tip. Subsequently, the cells were treated with the PA at IC50 concentration, and the extent of cell migration was assessed by analyzing the wound area at 0th, 24th, and 48th h time intervals using ImageJ software (Wayne Rasband, USA).

Row | Compound | IC50 (MCF7; Homo sapiens, MCF7, 48 h) | IC50 (SiHa; Homo sapiens, SiHa) | IC50 (Cal27; Homo sapiens, CAL-27, 48 h) | IC50 (HepG2; Homo sapiens, HepG2, 48 h) | IC50 [1] | clonogenic efficiency (colony formation) (SiHa cells [2]) | IC50 (MCF7; 48 h) | IC50 (SiHa) | IC50 (Cal27; 48 h) | IC50 (HepG2; 48 h) | effect of ferric ammonium citrate (FAC) co-administration on cytotoxicity (SiHa cells [3]) | cell cycle progression (SiHa cells [4]) | IC50 [5] | acetylated Histone H3 levels (western blot) [6] | intracellular dNTP levels [7] | IC50 [8] | early apoptosis (SiHa cells [9]; IC50 concentration) | early apoptosis (SiHa cells [9]; IC70 concentration) | logD [10] | wound area percentage (SiHa cells [11])
1 | c1cnc2c(c1)ccc1cccnc12 [1,10-Phenanthroline] | 48.8 ± 12 µM | 42.9 ± 2.53 µM | 53 ± 2.18 µM | > 100 µM | > 100 µM |  |  |  |  |  |  |  |  |  |  |  |  |  |  | 
2 | CC(=O)N(O)CCCCCNC(=O)CCC(=O)N(O)CCCCCNC(=O)CCC(=O)N(O)CCCCCN [DFO, Deferoxamine] | > 100 µM | 71.5 ± 5.02 µM | 46 ± 3.07 µM | > 100 µM | > 100 µM | 44.63% |  |  |  |  |  |  |  |  |  |  |  |  |  | 
3 | NC(=O)NO [HU, Hydroxyurea] |  |  |  |  | > 100 µM |  | > 100 µM | > 100 µM | > 100 µM | > 100 µM |  |  |  |  |  |  |  |  |  | 
4 | O=C(CCCCCCC(=O)Nc1cc2cccnc2c2ncccc12)NO [PA, N^1-hydroxy-N^8-(1,10-phenanthrolin-5-yl)octanediamide] | > 100 µM | 16.4 ± 4.71 µM | 51 ± 3.08 µM | > 100 µM | > 100 µM | 1.99% |  |  |  |  | FAC reduced PA cell toxicity in a concentration-dependent manner | increased the cell population at the S phase and a concentration-dependent elevation in the G2/M phase | 9.34 µM | dose-dependent increase in acetylated Histone H3 levels | marked decrease in intracellular dNTP levels | 10.8 µM | 3.63% | 2.58% | 0.82 | 56.33%
